Assay results taken from the NIST ThermoML archive (doi:10.1016/j.jct.2005.12.010).
± gives the expanded uncertainty stated by the source.

Assay: xn = mol fraction of the nth substance listed
Details: 101 kPa, Liquid

CC1CCCC1 [methylcyclopentane] + CCC(C)O
speed of sound [m/s]
Details	293.15 K	298.15 K	303.15 K
x1 = 0.0503	1223 ± 2	1204 ± 2	1186 ± 2
x1 = 0.0966	1216 ± 2	1198 ± 2	1179 ± 2
x1 = 0.198	1205 ± 2	1185 ± 2	1165 ± 2
x1 = 0.3041	1194 ± 2	1173 ± 2	1153 ± 2
x1 = 0.4088	1186 ± 3	1164 ± 3	1143 ± 3
x1 = 0.5084	1180 ± 3	1158 ± 3	1137 ± 3
x1 = 0.5961	1177 ± 3	1155 ± 3	1133 ± 3
x1 = 0.7045	1176 ± 4	1154 ± 4	1132 ± 4
x1 = 0.8151	1180 ± 4	1157 ± 4	1134 ± 4
x1 = 0.9065	1185 ± 5	1162 ± 5	1139 ± 5
x1 = 0.9532	1189 ± 5	1166 ± 5	1143 ± 5
x1 = 1	1197 ± 5	1174 ± 5	1150 ± 5

CC1CCCC1 [methylcyclopentane] + CCCC(C)O
speed of sound [m/s]
Details	293.15 K	298.15 K	303.15 K
x1 = 0.0484	1244 ± 2	1225 ± 2	1206 ± 2
x1 = 0.0999	1236 ± 2	1217 ± 2	1198 ± 2
x1 = 0.1949	1223 ± 2	1203 ± 2	1183 ± 2
x1 = 0.3177	1207 ± 3	1187 ± 3	1167 ± 3
x1 = 0.4017	1198 ± 3	1178 ± 3	1157 ± 3
x1 = 0.4945	1190 ± 3	1169 ± 3	1149 ± 3
x1 = 0.6131	1184 ± 4	1163 ± 4	1141 ± 4
x1 = 0.7107	1183 ± 4	1161 ± 4	1139 ± 4
x1 = 0.815	1183 ± 4	1161 ± 4	1138 ± 4
x1 = 0.9083	1187 ± 5	1164 ± 5	1141 ± 5
x1 = 0.9535	1190 ± 5	1167 ± 5	1144 ± 5
x1 = 1	1197 ± 5	1174 ± 5	1150 ± 5
